Toxic doses and inconclusive results are not listed. Cut-off read from the data, not from the text of the source: active = T/C of 150% or more; inactive = T/C below 125%.
Tested on: L1210 leukemia ip in BDF1 mice, survival T/C
Assay: NCI In Vivo Anticancer Drug Screen. Data for tumor model L1210 Leukemia (intraperitoneal) in B6D2F1 (BDF1) mice
Conditions: endpoint: mean survival time, higher = longer survival
Outline: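 Read-out is survival time, reported as the treated-group measurement over the vehicle-control measurement.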

[1] = dose: 100.0 mg/kg/injection, schedule: Q01DX009 (ip), vehicle: Klucel (hydroxypropylcellulose) (HPC)
[2] = dose: 100.0 mg/kg/injection, schedule: Q04DX003 (ip), vehicle: Klucel (hydroxypropylcellulose) (HPC)
[3] = dose: 200.0 mg/kg/injection, schedule: Q01DX009 (ip), vehicle: Klucel (hydroxypropylcellulose) (HPC)
[4] = dose: 200.0 mg/kg/injection, schedule: Q04DX003 (ip), vehicle: Klucel (hydroxypropylcellulose) (HPC)
[5] = dose: 400.0 mg/kg/injection, schedule: Q04DX003 (ip), vehicle: Klucel (hydroxypropylcellulose) (HPC)
[6] = dose: 100.0 mg/kg/injection, schedule: Q04DX002 (ip), vehicle: saline
[7] = dose: 200.0 mg/kg/injection, schedule: Q04DX002 (ip), vehicle: saline
[8] = dose: 400.0 mg/kg/injection, schedule: Q04DX002 (ip), vehicle: saline
[9] = dose: 100.0 mg/kg/injection, schedule: Q01DX001 (ip), vehicle: saline
[10] = dose: 200.0 mg/kg/injection, schedule: Q01DX001 (ip), vehicle: saline
[11] = dose: 400.0 mg/kg/injection, schedule: Q01DX001 (ip), vehicle: saline
[12] = dose: 100.0 mg/kg/injection, schedule: Q04DX002 (ip), vehicle: Klucel (hydroxypropylcellulose) (HPC)
[13] = dose: 400.0 mg/kg/injection, schedule: Q01DX009 (ip), vehicle: Klucel (hydroxypropylcellulose) (HPC)
[14] = dose: 100.0 mg/kg/injection, schedule: Q04DX003 (ip), vehicle: saline with Tween-80
[15] = dose: 200.0 mg/kg/injection, schedule: Q04DX003 (ip), vehicle: saline with Tween-80
[16] = dose: 400.0 mg/kg/injection, schedule: Q04DX003 (ip), vehicle: saline with Tween-80
[17] = dose: 100.0 mg/kg/injection, schedule: Q04DX003 (ip), vehicle: saline

Measured: T/C

N/C(=N\O)c1cccnc1
inactive: dose: 25.0 mg/kg/injection, schedule: Q01DX009 (ip), vehicle: water 98 % of control | dose: 50.0 mg/kg/injection, schedule: Q01DX009 (ip), vehicle: water 106 % of control | dose: 100.0 mg/kg/injection, schedule: Q01DX009 (ip), vehicle: saline with Tween-80 100 % of control | dose: 100.0 mg/kg/injection, schedule: Q01DX009 (ip), vehicle: water 101 % of control | dose: 100.0 mg/kg/injection, schedule: Q04DX003 (ip), vehicle: water 100 % of control | dose: 200.0 mg/kg/injection, schedule: Q01DX009 (ip), vehicle: saline with Tween-80 96 % of control | dose: 200.0 mg/kg/injection, schedule: Q01DX009 (ip), vehicle: water 97 % of control | dose: 200.0 mg/kg/injection, schedule: Q04DX003 (ip), vehicle: water 107 % of control

N#CC(Nc1ccccc1)c1ccccc1 (stereo not given)
inactive: [1] 91 % of control | [2] 97 % of control | [3] 96 % of control | [4] 95 % of control | [5] 104 % of control

O=C(Nc1cccc(Cl)c1)Oc1ccc2ccccc2c1
inactive: dose: 100.0 mg/kg/injection, schedule: Q01DX009 (ip), vehicle: saline 90 % of control | dose: 100.0 mg/kg/injection, schedule: Q04DX004 (ip), vehicle: saline 104 % of control | dose: 200.0 mg/kg/injection, schedule: Q01DX009 (ip), vehicle: saline 101 % of control | dose: 200.0 mg/kg/injection, schedule: Q04DX004 (ip), vehicle: saline 90 % of control | dose: 400.0 mg/kg/injection, schedule: Q01DX009 (ip), vehicle: saline 101 % of control | dose: 400.0 mg/kg/injection, schedule: Q04DX004 (ip), vehicle: saline 98 % of control

COCC(=O)O
inactive: dose: 100.0 mg/kg/injection, schedule: Q01DX001 (ip), vehicle: Klucel (hydroxypropylcellulose) (HPC) 100 % of control | [6] 102 % of control | dose: 200.0 mg/kg/injection, schedule: Q01DX001 (ip), vehicle: Klucel (hydroxypropylcellulose) (HPC) 96 % of control | [7] 94 % of control | dose: 400.0 mg/kg/injection, schedule: Q01DX001 (ip), vehicle: Klucel (hydroxypropylcellulose) (HPC) 100 % of control | [8] 97 % of control

CCCCCCCCc1nc2c([nH]1)c(=O)n(C)c(=O)n2C
inactive: dose: 50.0 mg/kg/injection, schedule: Q01DX001 (ip), vehicle: saline 87 % of control | [9] 90 % of control | [10] 90 % of control | [11] 102 % of control

COc1cc(NC(N)=O)cc(OC)c1OC
inactive: dose: 100.0 mg/kg/injection, schedule: Q01DX009 (ip), vehicle: saline sonified 101 % of control | [2] 99 % of control | dose: 200.0 mg/kg/injection, schedule: Q01DX009 (ip), vehicle: saline sonified 95 % of control | [4] 94 % of control | dose: 400.0 mg/kg/injection, schedule: Q01DX009 (ip), vehicle: saline sonified 101 % of control | [5] 99 % of control

CCOC(=O)Nc1nc2nc[nH]c2c(NC(c2ccccc2)c2ccccc2)c1Br
inactive: [12] 91 % of control | dose: 200.0 mg/kg/injection, schedule: Q04DX002 (ip), vehicle: Klucel (hydroxypropylcellulose) (HPC) 91 % of control | dose: 400.0 mg/kg/injection, schedule: Q04DX002 (ip), vehicle: Klucel (hydroxypropylcellulose) (HPC) 86 % of control

CCCCCCCCC(=O)CCC
inactive: [1] 98 % of control | [2] 98 % of control | [3] 98 % of control | [4] 106 % of control | [13] 98 % of control | [5] 91 % of control

O=C(O)CC1CC2CCC1C2 (stereo not given)
inactive: dose: 100.0 mg/kg/injection, schedule: Q04DX002 (ip), vehicle: saline with Tween-80 87 % of control | dose: 200.0 mg/kg/injection, schedule: Q04DX002 (ip), vehicle: saline with Tween-80 97 % of control | dose: 400.0 mg/kg/injection, schedule: Q04DX002 (ip), vehicle: saline with Tween-80 87 % of control

c1cc(C2=NCCN2)ccc1C1=NCCN1
inactive: dose: 15.0 mg/kg/injection, schedule: Q01DX Z (ip), vehicle: saline 104 % of control | dose: 30.0 mg/kg/injection, schedule: Q01DX Z (ip), vehicle: saline 102 % of control | dose: 60.0 mg/kg/injection, schedule: Q01DX Z (ip), vehicle: saline 106 % of control | dose: 120.0 mg/kg/injection, schedule: Q01DX Z (ip), vehicle: saline 101 % of control

O=c1c(-c2ccccc2)coc2ccccc12
inactive: [14] 97 % of control | [15] 92 % of control | [16] 90 % of control

C=CCSc1ccccc1C(=O)O
inactive: dose: 50.0 mg/kg/injection, schedule: Q01DX001 (ip), vehicle: carboxymethylcellulose (CMC) 122 % of control | dose: 100.0 mg/kg/injection, schedule: Q01DX001 (ip), vehicle: carboxymethylcellulose (CMC) 95 % of control | dose: 200.0 mg/kg/injection, schedule: Q01DX001 (ip), vehicle: carboxymethylcellulose (CMC) 106 % of control | dose: 400.0 mg/kg/injection, schedule: Q01DX001 (ip), vehicle: carboxymethylcellulose (CMC) 106 % of control

ClC12CCC(CC1)C2
inactive: [6] 96 % of control | [7] 104 % of control | [8] 93 % of control

CC(=O)Oc1c(C2CCCCC2)cc([N+](=O)[O-])cc1[N+](=O)[O-]
inactive: [2] 94 % of control | [4] 101 % of control

NC(=O)C(CCC(=O)O)NC(=O)OCc1ccccc1 (stereo not given)
inactive: dose: 25.0 mg/kg/injection, schedule: Q04DX002 (ip), vehicle: Klucel (hydroxypropylcellulose) (HPC) 100 % of control | dose: 50.0 mg/kg/injection, schedule: Q04DX002 (ip), vehicle: Klucel (hydroxypropylcellulose) (HPC) 92 % of control | [12] 100 % of control

CC(C)NC=O
inactive: [9] 96 % of control | [10] 102 % of control | [11] 104 % of control

c1ccc([Si](C[CH2][Sn]([c]2ccccc2)([c]2ccccc2)[c]2ccccc2)(c2ccccc2)c2ccc([Si](C[CH2][Sn]([c]3ccccc3)([c]3ccccc3)[c]3ccccc3)(c3ccccc3)c3ccccc3)cc2)cc1
inactive: [14] 100 % of control | [15] 96 % of control | [16] 96 % of control

C=CCOCC(C)OC(=O)C(C)C (stereo not given)
inactive: [9] 107 % of control | [10] 94 % of control | [11] 90 % of control

O=C(Nc1cccc(Cl)c1Cl)Oc1ccc(F)cc1Cl
inactive: [1] 108 % of control | [3] 108 % of control | [13] 113 % of control

CN=C1N[N+]2=C(C)CCCC2(C)S1 (stereo not given)
inactive: [17] 101 % of control | dose: 200.0 mg/kg/injection, schedule: Q04DX003 (ip), vehicle: saline 89 % of control

Cc1ccc(N(C)C(=O)c2ccccc2S)cc1
inactive: [9] 105 % of control | [10] 105 % of control | [11] 109 % of control

Nc1c(Br)cc2c(c1Br)Cc1cc([N+](=O)[O-])ccc1-2
inactive: [14] 104 % of control | [15] 103 % of control | [16] 98 % of control

C[N+]1(CCCNC2=CC(=O)C=CC2=O)CCCC1
inactive: dose: 0.5 mg/kg/injection, schedule: Q01DX001 (ip), vehicle: saline 108 % of control

CC1(C)N=C(N)N=C(N)N1c1cccc(CCCCCc2ccccc2)c1
inactive: dose: 25.0 mg/kg/injection, schedule: Q01DX001 (ip), vehicle: saline 94 % of control

COc1ccc([N+](=O)[O-])cc1NC(=O)Nc1ccc(C(=O)OCC(C)C)cc1
inactive: [1] 100 % of control | [3] 100 % of control | [13] 95 % of control

CN(C)CCSCCN1c2ccccc2Sc2ccc(Cl)cc21
inactive: [17] 104 % of control

Cc1ccc(NS(=O)(=O)c2ccc(Cl)cc2)cc1Cl
inactive: dose: 25.0 mg/kg/injection, schedule: Q01DX009 (ip), vehicle: Klucel (hydroxypropylcellulose) (HPC) 94 % of control | dose: 50.0 mg/kg/injection, schedule: Q01DX009 (ip), vehicle: Klucel (hydroxypropylcellulose) (HPC) 99 % of control | [1] 96 % of control | [2] 106 % of control | [3] 99 % of control | [4] 96 % of control | [13] 88 % of control | [5] 100 % of control

CC(=O)Nc1ccc(OCCOC(=O)Nc2ccccc2C(F)(F)F)cc1
inactive: [1] 91 % of control | [3] 105 % of control | [13] 93 % of control

C=CC[N+](CCO)(CCO)CCCCCCCCCCCCCCCCCC
inactive: dose: 12.5 mg/kg/injection, schedule: Q04DX002 (ip), vehicle: saline 102 % of control | dose: 25.0 mg/kg/injection, schedule: Q04DX002 (ip), vehicle: saline 97 % of control

— PubChem BioAssay AID248 (DTP/NCI, 2004)
